According to the supplement of paper PMC5844555:

Columns and labels:
Assay in all cases: 3' UTR reporter interaction score (median-centred robust z-score of log2 firefly/Renilla activity); higher = less repression of the 3' UTR reporter
Details in all cases: HEK293T; 48 h
MYCN = system: MYCN
Outline: (§1)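 Using DharmaFECT Duo, HEK293T cells (10,000/well, 96-well plates) were co-transfected with 2.5 pmol miRNA mimic, 100 ng firefly luc2P reporter containing the gene's 3' UTR and 20 ng Renilla pRL-TK control, and dual-luciferase activity was read 48 h later. The interaction score is the log firefly/Renilla ratio as a per-plate robust z-score (median, median absolute deviation), median-centred per miRNA, averaged over at least two independent screens; lower, more negative values indicate interaction.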

PHOX2B = system: PHOX2B
Outline: as §1

MYC = system: MYC
Outline: as §1

ZEB2 = system: ZEB2
Outline: as §1

MYT1L = system: MYT1L
Outline: as §1

HRAS = system: HRAS
Outline: as §1

TP53 = system: TP53
Outline: as §1

PHF6 = system: PHF6
Outline: as §1

NOTCH1 = system: NOTCH1
Outline: as §1

BRCA2 = system: BRCA2
Outline: as §1

RB1 = system: RB1
Outline: as §1

EZH2 = system: EZH2
Outline: as §1

FBXW7 = system: FBXW7
Outline: as §1

MYB = system: MYB
Outline: as §1

Sequence | 3' UTR reporter interaction score (MYCN) | 3' UTR reporter interaction score (PHOX2B) | 3' UTR reporter interaction score (MYC) | 3' UTR reporter interaction score (ZEB2) | 3' UTR reporter interaction score (MYT1L) | 3' UTR reporter interaction score (HRAS) | 3' UTR reporter interaction score (TP53) | 3' UTR reporter interaction score (PHF6) | 3' UTR reporter interaction score (NOTCH1) | 3' UTR reporter interaction score (BRCA2) | 3' UTR reporter interaction score (RB1) | 3' UTR reporter interaction score (EZH2) | 3' UTR reporter interaction score (FBXW7) | 3' UTR reporter interaction score (MYB)
AUCGGGAAUGUCGUGUCCGCC | -0.166 | 0.773 | -1.57 | 0.211 | -0.0689 | 0.0629 | 0.313 | 1.55 | -0.49 | 0.225 | -0.355 | -0.604 | 0.361 | -0.74
AUCGUGCAUCCCUUUAGAGUGUU | 0.792 | -0.0114 | -0.211 | -2.08 | 0.0982 | -0.945 | -0.928 | 1.97 | -0.525 | 0.348 | 0.943 | 0.461 | 0.0524 | 0.132
AUCGUGCAUCCUUUUAGAGUGU | 1.14 | 0.0627 | -0.764 | -2.58 | -0.261 | -1.03 | -0.802 | 2.24 | -0.741 | -0.461 | 0.712 | 0.0977 | -0.0607 | 0.368
AUGACCUAUGAAUUGACAGAC | 1.35 | -1.53 | 1.39 | -6.08 | 0.231 | 0.425 | 0.0613 | -2.93 | -0.0227 | -0.0675 | -3 | 0.321 | -0.658 | 1.61
AUGAUCCAGGAACCUGCCUCU | 0.642 | -1.8 | 0.0276 | -0.647 | -2.69 | -0.133 | -0.239 | -2.82 | 0.405 | 0.796 | -0.262 | 1.23 | 1.33 | -0.332
AUGCACCUGGGCAAGGAUUCUG | -0.703 | -3.43 | 1.46 | -2.03 | 1.1 | 0.134 | -0.0328 | -1.61 | 0.738 | 1.42 | -0.483 | 2.23 | -4.97 | 0.3
AUGGAGAUAGAUAUAGAAAU | -0.424 | 0.37 | 0.503 | 1.49 | -1.67 | 0.428 | 0.174 | -0.821 | -0.424 | -0.571 | -0.936 | 1.16 | 0.0761 | -0.0865
AUGUAUGUGUGCAUGUGCAUG | 0.324 | -0.089 | -1.3 | -0.0851 | -0.904 | 0.472 | 0.0318 | -1.08 | -0.54 | -0.994 | -1.83 | 1.67 | 0.682 | -0.0409
AUUACAUGGCCAAUCUC | 0.193 | 1.43 | 0.104 | -0.413 | -0.267 | -0.228 | 0.293 | -0.0228 | 0.461 | -0.25 | -1.24 | -0.208 | 0.611 | 0.0435
AUUCAUUUGGUAUAAACCGCGAU | 0.523 | -0.197 | 0.404 | 0.368 | -0.154 | 0.347 | -1.06 | 0.306 | 0.53 | -0.573 | 0.747 | -0.0582 | -1.6 | -0.684
AUUCCUAGAAAUUGUUCAUA | -0.577 | -0.529 | -0.586 | -0.418 | 1.2 | -0.0105 | -0.0494 | 0.216 | 0.632 | 0.0394 | -0.707 | 0.167 | 0.157 | 0.61
AUUCUAAUUUCUCCACGUCUUUG | 0.587 | 0.107 | 0.0131 | -0.49 | 0.697 | 0.632 | 0.345 | -1.02 | -0.432 | -0.103 | -2.85 | -4.24 | -0.826 | 0.162
AUUCUGCAUUUUUAGCAAGU | 1.34 | -0.262 | 1.31 | -0.209 | -2.22 | 0.548 | 0.643 | 0.263 | -2.14 | -0.0751 | 0.0642 | 0.847 | -2.1 | 1.56
AUUGACACUUCUGUGAGUAG | 0.177 | -1.35 | -0.339 | -1.2 | 0.508 | -0.309 | 0.785 | -0.709 | -0.955 | 0.358 | 0.465 | -0.495 | -1.37 | 0.756
CAAAAAUCUCAAUUACUUUUGC | 0.123 | 0.42 | 0.393 | -0.266 | 0.42 | -0.151 | 0.17 | -0.915 | -0.966 | -0.215 | -0.319 | 0.0697 | 0.748 | -1.38
CAAAACUGGCAAUUACUUUUGC | -0.107 | -0.532 | -0.183 | 0.0176 | -0.395 | 0.367 | 0.751 | -1.26 | 0.158 | -0.307 | 0.322 | 0.755 | -2.13 | -1.52
CAAAGAAUUCUCCUUUUGGGCUU | 0.453 | -0.413 | -0.381 | -0.283 | 0.219 | 0.0982 | -0.294 | -0.267 | 1.33 | -0.174 | 1.54 | -0.313 | -0.499 | 0.952

Sequence | 3' UTR reporter interaction score (MYCN) | 3' UTR reporter interaction score (PHOX2B) | 3' UTR reporter interaction score (MYC) | 3' UTR reporter interaction score (ZEB2) | 3' UTR reporter interaction score (MYT1L) | 3' UTR reporter interaction score (HRAS) | 3' UTR reporter interaction score (TP53) | 3' UTR reporter interaction score (PHF6) | 3' UTR reporter interaction score (NOTCH1) | 3' UTR reporter interaction score (BRCA2) | 3' UTR reporter interaction score (RB1) | 3' UTR reporter interaction score (EZH2) | 3' UTR reporter interaction score (FBXW7) | 3' UTR reporter interaction score (MYB)
CAAAGAGGAAGGUCCCAUUAC | 0.419 | -0.488 | -0.255 | 1.21 | -0.262 | 0.586 | -1.21 | -0.348 | -0.106 | -0.346 | -0.878 | -0.46 | 0.456 | 0.328
CAAAGCGCUCCCCUUUAGAGGU | -0.228 | 0.264 | 0.756 | 1.31 | -0.44 | 1.33 | -0.173 | 1.12 | -0.101 | -0.715 | -1.27 | 0.467 | -0.27 | -0.147
CAAAGCGCUUCCCUUUGGAGC | 0.103 | 0.957 | -0.581 | 0.353 | -0.495 | 0.795 | -0.385 | 0.27 | 0.413 | -0.805 | -0.468 | 0.322 | 0.503 | -0.305
CAAAGCGCUUCUCUUUAGAGUG | -0.402 | -1.15 | 1.05 | -0.101 | -0.533 | 0.465 | 0.068 | 1.07 | 0.203 | 0.562 | -4.99e-18 | 0.725 | -1.3 | -0.443
CAAAGUGCCUCCCUUUAGAGUGU | 0.839 | 0.0452 | -0.351 | -0.0865 | -0.343 | 0.317 | 0.418 | 0.15 | 0.00359 | 0.407 | -0.937 | -0.27 | 0.81 | 0.155
CAAAGUGCUCAUAGUGCAGGUAG | -0.62 | 1.67 | -0.364 | 1.98 | -1.37 | 0.757 | 0.0738 | 0.651 | 1.52 | 0.253 | 0.42 | -0.533 | 1 | -1.73
CAAAGUUUAAGAUCCUUGAAGU | -0.796 | -2.34 | -0.333 | -0.576 | 0.732 | 0.215 | -0.363 | 0.33 | -0.31 | 0.573 | 0.395 | 0.55 | -0.767 | 0.577
CAACCUGGAGGACUCCAUGCUG | 0.831 | -0.796 | 0.486 | 0.335 | 0.329 | 0.685 | 0.0572 | -0.934 | -0.127 | 0.635 | -2.92 | 0.157 | 0.0371 | 1.15
CAACGGAAUCCCAAAAGCAGCU | -0.12 | -0.397 | 0.282 | 0.375 | -1.32 | 0.275 | -0.924 | -0.143 | 0.629 | -0.135 | 0.747 | 0.561 | -0.229 | -0.0583
CAAGUCACUAGUGGUUCCGUUUA | -0.0757 | 0.0612 | -1.07 | 1.99 | -1.25 | -1.48 | -0.393 | -0.71 | 1.15 | 0.252 | 1.58 | 0.168 | 1.35 | -0.363
CACACACUGCAAUUACUUUUGC | 0.192 | 0.662 | 0.144 | -2.35 | 0.0502 | 0.537 | 0.266 | -0.242 | -1.12 | 1.28 | -0.83 | 0.0197 | -1.17 | -0.132
CACCCGUAGAACCGACCUUGCG | -0.0242 | -3.87 | 0.596 | -1.09 | -0.00069 | 0.575 | -0.17 | -0.967 | -0.125 | 0.615 | -0.00577 | -0.866 | 0.377 | 0.655
CACUCAGCCUUGAGGGCACUUUC | 1.12 | 0.0189 | -1.6 | 0.556 | -1.55 | -0.0814 | 0.0719 | -4 | 0.801 | 0.623 | 0.059 | 0.269 | -1.64 | 1.11
CAGCAGCAAUUCAUGUUUUGAA | -0.622 | 1.12 | -0.0621 | 0.626 | -4.35 | -0.93 | 0.52 | 2.81 | 0.0853 | 0.886 | 0.649 | -0.709 | -2.64 | -2.05
CAGCAGCACACUGUGGUUUGU | -0.42 | 0.464 | 0.347 | 1.1 | -4.01 | -1.05 | -0.308 | 1.13 | -0.283 | 0.267 | -0.141 | -1.21 | -2.99 | -2.62
CAGUAACAAAGAUUCAUCCUUGU | 1.32 | -1.19 | -0.308 | 0.308 | -0.326 | 0.555 | -0.52 | -3.72 | -0.945 | -0.621 | -3.18 | 0.69 | -0.152 | 0.361
CAGUGCAAUGAUGAAAGGGCAU | 1.64 | -0.853 | 0.674 | -0.474 | 0.286 | -0.234 | -0.295 | 0.644 | 0.857 | -0.463 | 1.03 | -0.471 | 0.958 | -1.75
